Test results as given in patent US8808743B2, “Benzonatate compositions and methods of use” (priority 2010, dated 2014).

Experiment: Simulated gastrointestinal dissolution testing (FloVitro apparatus, USP simulated gastric and intestinal fluids)
Format: physicochemical
Settings: 100 mg dose
Description: The dissolution test used procedures devised by DOW Chemical using their proprietary FloVitro™ dissolution apparatus described in U.S. Pat. No. 6,799,123B2 and in the publication titled “FloVitro™ Technology” published online at:
The system used two different media that were combined during the process. The fluid flow rates were:
Simulated gastric fluid=7.7 ml/min
Simulated intestinal fluid=13.1 ml/mi
Total flow through analyzer=20.8 ml/min
To Cell 1: USP simulated gastric fluid (no pepsin)
To Cell 2: USP simulated intestinal fluid (pH 6.8) (SIF)
The samples tested were: • a) 100 mg dose neat benzonatate • b) 220.48 mg of IRP69H resinate: 87.97 mg benzonatate dose • c) 225.15 mg of IRP64H resinate: 102.21 mg benzonatate dose a) 100 mg Neat Benzonatate

- Concentration of Homolog in Effluent Total (120 min): 18.66 mg/L
- Concentration of Homolog in Effluent n = 3 (120 min): 0.05 mg/L
- Concentration of Homolog in Effluent n = 4 (120 min): 0.20 mg/L
- Concentration of Homolog in Effluent n = 5 (120 min): 0.53 mg/L
- Concentration of Homolog in Effluent n = 6 (120 min): 1.18 mg/L
- Concentration of Homolog in Effluent n = 7 (120 min): 1.99 mg/L
- Concentration of Homolog in Effluent n = 8 (120 min): 2.67 mg/L
- Concentration of Homolog in Effluent n = 9 (120 min): 3.01 mg/L
- Concentration of Homolog in Effluent n = 10 (120 min): 2.84 mg/L
- Concentration of Homolog in Effluent n = 11 (120 min): 2.44 mg/L
- Concentration of Homolog in Effluent n = 12 (120 min): 1.73 mg/L
- Concentration of Homolog in Effluent n = 13 (120 min): 1.13 mg/L
- Concentration of Homolog in Effluent n = 14 (120 min): 0.59 mg/L
- Concentration of Homolog in Effluent n = 15 (120 min): 0.31 mg/L
- Concentration of Homolog in Effluent n = 16 (120 min): 0.00 mg/L
- Concentration of Homolog in Effluent n = 17 (120 min): 0.00 mg/L
- Cumul. (cumulative release in effluent) (120 min): 81.10 mg
- Concentration of Homolog in Effluent Total (180 min): 9.68 mg/L
- Concentration of Homolog in Effluent n = 3 (180 min): 0.00 mg/L
- Concentration of Homolog in Effluent n = 4 (180 min): 0.10 mg/L
- Concentration of Homolog in Effluent n = 5 (180 min): 0.29 mg/L
- Concentration of Homolog in Effluent n = 6 (180 min): 0.61 mg/L
- Concentration of Homolog in Effluent n = 7 (180 min): 1.04 mg/L
- Concentration of Homolog in Effluent n = 8 (180 min): 1.41 mg/L
- Concentration of Homolog in Effluent n = 9 (180 min): 1.57 mg/L
- Concentration of Homolog in Effluent n = 10 (180 min): 1.51 mg/L
- Concentration of Homolog in Effluent n = 11 (180 min): 1.26 mg/L
- Concentration of Homolog in Effluent n = 12 (180 min): 0.90 mg/L
- Concentration of Homolog in Effluent n = 13 (180 min): 0.57 mg/L
- Concentration of Homolog in Effluent n = 14 (180 min): 0.30 mg/L
- Concentration of Homolog in Effluent n = 15 (180 min): 0.11 mg/L
- Concentration of Homolog in Effluent n = 16 (180 min): 0.00 mg/L
- Concentration of Homolog in Effluent n = 17 (180 min): 0.00 mg/L
- Cumul. (cumulative release in effluent) (180 min): 90.57 mg
- Concentration of Homolog in Effluent Total (240 min): 5.50 mg/L
- Concentration of Homolog in Effluent n = 3 (240 min): 0.00 mg/L
- Concentration of Homolog in Effluent n = 4 (240 min): 0.06 mg/L
- Concentration of Homolog in Effluent n = 5 (240 min): 0.16 mg/L
- Concentration of Homolog in Effluent n = 6 (240 min): 0.36 mg/L
- Concentration of Homolog in Effluent n = 7 (240 min): 0.60 mg/L
- Concentration of Homolog in Effluent n = 8 (240 min): 0.78 mg/L
- Concentration of Homolog in Effluent n = 9 (240 min): 0.89 mg/L
- Concentration of Homolog in Effluent n = 10 (240 min): 0.84 mg/L
- Concentration of Homolog in Effluent n = 11 (240 min): 0.70 mg/L
- Concentration of Homolog in Effluent n = 12 (240 min): 0.49 mg/L
- Concentration of Homolog in Effluent n = 13 (240 min): 0.36 mg/L
- Concentration of Homolog in Effluent n = 14 (240 min): 0.17 mg/L
- Concentration of Homolog in Effluent n = 15 (240 min): 0.09 mg/L
- Concentration of Homolog in Effluent n = 16 (240 min): 0.00 mg/L
- Concentration of Homolog in Effluent n = 17 (240 min): 0.00 mg/L
- Cumul. (cumulative release in effluent) (240 min): 95.70 mg
- Concentration of Homolog in Effluent Total (300 min): 2.73 mg/L
- Concentration of Homolog in Effluent n = 3 (300 min): 0.00 mg/L
- Concentration of Homolog in Effluent n = 4 (300 min): 0.00 mg/L
- Concentration of Homolog in Effluent n = 5 (300 min): 0.09 mg/L
- Concentration of Homolog in Effluent n = 6 (300 min): 0.18 mg/L
- Concentration of Homolog in Effluent n = 7 (300 min): 0.30 mg/L
- Concentration of Homolog in Effluent n = 8 (300 min): 0.41 mg/L
- Concentration of Homolog in Effluent n = 9 (300 min): 0.45 mg/L
- Concentration of Homolog in Effluent n = 10 (300 min): 0.42 mg/L
- Concentration of Homolog in Effluent n = 11 (300 min): 0.39 mg/L
- Concentration of Homolog in Effluent n = 12 (300 min): 0.25 mg/L
- Concentration of Homolog in Effluent n = 13 (300 min): 0.15 mg/L
- Concentration of Homolog in Effluent n = 14 (300 min): 0.09 mg/L
- Concentration of Homolog in Effluent n = 15 (300 min): 0.00 mg/L
- Concentration of Homolog in Effluent n = 16 (300 min): 0.00 mg/L
- Concentration of Homolog in Effluent n = 17 (300 min): 0.00 mg/L
- Cumul. (cumulative release in effluent) (300 min): 98.15 mg
- Concentration of Homolog in Effluent Total (360 min): 1.20 mg/L
- Concentration of Homolog in Effluent n = 3 (360 min): 0.00 mg/L
- Concentration of Homolog in Effluent n = 4 (360 min): 0.00 mg/L
- Concentration of Homolog in Effluent n = 5 (360 min): 0.05 mg/L
- Concentration of Homolog in Effluent n = 6 (360 min): 0.11 mg/L
- Concentration of Homolog in Effluent n = 7 (360 min): 0.15 mg/L
- Concentration of Homolog in Effluent n = 8 (360 min): 0.19 mg/L
- Concentration of Homolog in Effluent n = 9 (360 min): 0.23 mg/L
- Concentration of Homolog in Effluent n = 10 (360 min): 0.20 mg/L
- Concentration of Homolog in Effluent n = 11 (360 min): 0.17 mg/L
- Concentration of Homolog in Effluent n = 12 (360 min): 0.10 mg/L
- Concentration of Homolog in Effluent n = 13 (360 min): 0.00 mg/L
- Concentration of Homolog in Effluent n = 14 (360 min): 0.00 mg/L
- Concentration of Homolog in Effluent n = 15 (360 min): 0.00 mg/L
- Concentration of Homolog in Effluent n = 16 (360 min): 0.00 mg/L
- Concentration of Homolog in Effluent n = 17 (360 min): 0.00 mg/L
- Cumul. (cumulative release in effluent) (360 min): 99.32 mg
- Concentration of Homolog in Effluent Total (420 min): 0.67 mg/L
- Concentration of Homolog in Effluent n = 3 (420 min): 0.00 mg/L
- Concentration of Homolog in Effluent n = 4 (420 min): 0.00 mg/L
- Concentration of Homolog in Effluent n = 5 (420 min): 0.00 mg/L
- Concentration of Homolog in Effluent n = 6 (420 min): 0.06 mg/L
- Concentration of Homolog in Effluent n = 7 (420 min): 0.08 mg/L
- Concentration of Homolog in Effluent n = 8 (420 min): 0.11 mg/L
- Concentration of Homolog in Effluent n = 9 (420 min): 0.12 mg/L
- Concentration of Homolog in Effluent n = 10 (420 min): 0.11 mg/L
- Concentration of Homolog in Effluent n = 11 (420 min): 0.09 mg/L
- Concentration of Homolog in Effluent n = 12 (420 min): 0.10 mg/L
- Concentration of Homolog in Effluent n = 13 (420 min): 0.00 mg/L
- Concentration of Homolog in Effluent n = 14 (420 min): 0.00 mg/L
- Concentration of Homolog in Effluent n = 15 (420 min): 0.00 mg/L
- Concentration of Homolog in Effluent n = 16 (420 min): 0.00 mg/L
- Concentration of Homolog in Effluent n = 17 (420 min): 0.00 mg/L
- Cumul. (cumulative release in effluent) (420 min): 99.74 mg
- Concentration of Homolog in Effluent Total (480 min): 0.00 mg/L
- Concentration of Homolog in Effluent n = 3 (480 min): 0.00 mg/L
- Concentration of Homolog in Effluent n = 4 (480 min): 0.00 mg/L
- Concentration of Homolog in Effluent n = 5 (480 min): 0.00 mg/L
- Concentration of Homolog in Effluent n = 6 (480 min): 0.00 mg/L
- Concentration of Homolog in Effluent n = 7 (480 min): 0.00 mg/L
- Concentration of Homolog in Effluent n = 8 (480 min): 0.00 mg/L
- Concentration of Homolog in Effluent n = 9 (480 min): 0.00 mg/L
- Concentration of Homolog in Effluent n = 10 (480 min): 0.00 mg/L
- Concentration of Homolog in Effluent n = 11 (480 min): 0.00 mg/L
- Concentration of Homolog in Effluent n = 12 (480 min): 0.00 mg/L
- Concentration of Homolog in Effluent n = 13 (480 min): 0.00 mg/L
- Concentration of Homolog in Effluent n = 14 (480 min): 0.00 mg/L
- Concentration of Homolog in Effluent n = 15 (480 min): 0.00 mg/L
- Concentration of Homolog in Effluent n = 16 (480 min): 0.00 mg/L
- Concentration of Homolog in Effluent n = 17 (480 min): 0.00 mg/L
Compound: CCCCNc1ccc(C(=O)OCCOCCOCCOCCOCCOCCOCCOCCOCCOC)cc1 [BENZ, benzonatate]
